Here are results for three molecules from PMC7576608, “Mechanisms of telomerase inhibition by oxidized and therapeutic dNTPs” (Nature Communications, 2020).

Where “and” joins values, the source holds several entries; their conditions need not be identical. Identical values can stand only once.

For experiment [1], the target named is T1, telomerase (Homo sapiens, UniProt O14746). The experiment in a line: Telomerase repeat processivity IC50: modified dNTP titrated into reactions with all four natural dNTPs. As to conditions: for Slope (line fit of ln(100-%LB) vs # telomere repeats) / YIntercept (line fit of ln(100-%LB) vs # telomere repeats): replicates n1, n2; for ln(100-%LB): n1, n2. The format is biochemical. Also on record: made in house; anti-FLAG immunopurification, eluted with 3xFLAG peptide. The source says: In order to better understand the ability of modified dNTPs to compete with natural dNTPs for telomerase utilization, we added modified dNTPs to reactions containing all four natural dNTPs. […] The calculated IC50 determines the concentration required to reduce repeat processivity in the bulk reactions by half. However, it is important to note that bulk experiments cannot distinguish effects on individual telomeres, since extended telomeres mask unextended telomeres. Incorporation of a chain terminator during any step will terminate extension of the affected telomere, and just five critically short telomeres are sufficient to trigger senescence. Therefore, repeat processivity IC50 values are not necessarily an indicator of the inhibitory potency, but provide information on selectivity for modified dNTPs compared to natural dNTPs. […] The ability to purify sufficient quantities of tcTERT enables characterization of the catalytic nucleotide addition by pre-steady-state single turnover kinetics using a defined DNA–RNA primer–template substrate. The catalytic efficiency of incorporating a single dNTP is measured by dividing the observed nucleotide incorporation rate constant, kpol, by the equilibrium dissociation constant for dNTP binding to the tcTERT–primer–template complex (Kd)[44].
T1 sequence (O14746 whole entry): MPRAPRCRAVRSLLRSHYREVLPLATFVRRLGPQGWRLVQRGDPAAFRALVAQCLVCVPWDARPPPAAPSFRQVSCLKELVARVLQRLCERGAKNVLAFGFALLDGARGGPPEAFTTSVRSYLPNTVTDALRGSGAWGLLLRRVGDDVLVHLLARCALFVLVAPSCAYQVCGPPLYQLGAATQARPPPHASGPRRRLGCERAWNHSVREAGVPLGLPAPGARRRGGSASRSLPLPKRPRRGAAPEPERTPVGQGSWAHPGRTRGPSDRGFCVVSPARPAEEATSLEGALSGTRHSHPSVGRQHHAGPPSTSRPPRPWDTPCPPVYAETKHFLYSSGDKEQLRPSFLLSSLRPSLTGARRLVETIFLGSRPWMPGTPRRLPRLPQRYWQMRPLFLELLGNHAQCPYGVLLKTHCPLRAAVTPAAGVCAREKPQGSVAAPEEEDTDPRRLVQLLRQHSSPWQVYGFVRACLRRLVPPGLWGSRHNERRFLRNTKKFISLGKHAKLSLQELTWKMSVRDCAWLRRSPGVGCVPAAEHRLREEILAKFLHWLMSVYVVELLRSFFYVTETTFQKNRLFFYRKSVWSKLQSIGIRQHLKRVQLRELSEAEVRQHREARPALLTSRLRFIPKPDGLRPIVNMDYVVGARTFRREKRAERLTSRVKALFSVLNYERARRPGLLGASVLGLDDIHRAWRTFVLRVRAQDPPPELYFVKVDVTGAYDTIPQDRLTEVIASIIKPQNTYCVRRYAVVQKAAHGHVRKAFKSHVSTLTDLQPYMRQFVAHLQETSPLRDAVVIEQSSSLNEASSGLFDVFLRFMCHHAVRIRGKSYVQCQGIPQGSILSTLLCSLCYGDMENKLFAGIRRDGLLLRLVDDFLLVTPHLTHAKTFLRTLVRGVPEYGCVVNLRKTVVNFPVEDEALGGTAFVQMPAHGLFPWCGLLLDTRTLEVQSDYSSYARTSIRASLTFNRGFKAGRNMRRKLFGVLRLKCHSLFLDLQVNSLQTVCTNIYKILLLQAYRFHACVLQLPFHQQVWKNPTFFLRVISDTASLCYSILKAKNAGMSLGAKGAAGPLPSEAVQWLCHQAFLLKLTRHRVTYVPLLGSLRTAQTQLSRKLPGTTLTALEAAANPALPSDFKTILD
The reactions were started by the addition of 3 μl of immunopurified telomerase eluent, incubated at 37 °C for 1 h, then terminated with 2 μl of […] and heat inactivated at 65 °C for 20 min. An equal volume of loading buffer (94% formamide, 0.1× TBE, 0.1% bromophenol blue, 0.1% xylene cyanol) was added to the reaction eluent. The samples were heat denatured for 10 min at 100 °C and loaded onto a 14% denaturing acrylamide gel (7 M urea, 1× TBE) and electrophoresed for 90 min at constant 38 W. Samples were imaged using a Typhoon phosphorimager (GE Healthcare). Percent primer extension was calculated with ImageQuant TL 8.2 by measuring the intensity of each product band and dividing by the total radioactivity in the lane or total products, as indicated in the figure legends.
The processivity was calculated as described[40],[67]. Repeat processivity from the direct telomerase extension assays was calculated as R1/2 (equivalent to the half-time for decay in an exponential time course), which represents the median length of DNA product formed, expressed in terms of number of telomere repeats. First, the total volume counts for each product band extend by one or more telomere repeats were obtained using Image Quant TL. The volume counts were then normalized by dividing by the number of radiolabeled guanosines incorporated into the extended products based on the number of repeats added, termed corrected volume (corr vol). The “percent left behind” (%LB) was calculated for each product band by summing the counts for that product band and for every product band below (shorter products), divided by the total counts for the lane, and then multiplied by 100. The natural log of (100−%LB) was calculated and then plotted vs. repeat number for each product length. A linear regression line was fit to the data to determine the slope of the line. The R1/2 value was calculated by dividing −ln(2) by the slope of each fitted line (R1/2 = −ln(2)/slope).
Supplementary Fig 8. IC50 values for telomerase processivity inhibition. Telomerase reactions were conducted with cellular relevant concentrations of all four natural dNTPs and increasing concentrations of the modified dNTP analog from 0 to 10,000 μM to calculate. (a) The natural log of (100-%LB) was plotted vs repeat number. A straight line was fit to the data and the R1/2 value was calculated by dividing –ln(2) by the slope of each line. Plots shown from one experiment are […]

In experiment [2] the target is T1, telomerase. The experiment in a line: Telomerase extension of 32P-end labeled primers with a single dNTP (percent primer extension). It counts as biochemical. Also on record: made in house; anti-FLAG immunopurification, eluted with 3xFLAG peptide. As to conditions: for Percent Primer Extension: 50 μM single dNTP. On the procedure:
A chain terminating mechanism of inhibition requires that the enzyme adds the modified dNTP to a growing chain, which then blocks further synthesis. […] To test whether telomerase can incorporate other modified dNTPs, and whether the incorporation is chain terminating and/or mutagenic, we conducted direct extension assays in which we radiolabeled the primer and added increasing concentrations (5, 50, and 500 μM) of a single dNTP (Supplementary Figs. 3, 5, 6, and 7). Since modified dNTPs may prefer mispairing, we tested various primers in which the first template base was either rA3, rC1, or rU5 (primer 1, primer 2, and primer 3, respectively), and compared the percent primer extension for each dNTP at the middle 50 μM concentration (Fig. 3). Primers 1 and 2 initiate synthesis at consecutive rA3rA4 or rC1rC2 template bases, respectively, so we could examine both incorporation and extension to the next base. However, the telomerase template lacks tandem rU residues.
Fig. 3 Telomerase insertion of modified dNTPs. Telomerase reactions were conducted with 5 nM ^32P-end labeled primer a Primer 1 (TTAGGG)3, b Primer 2 (GGTTAG)3, or c Primer 3 (AGGGTT)3. Reactions contained cellular-concentration dNTPs (lane 1) or 50 μM of indicated natural dNTP (blue, lanes 2–5), oxidized dNTP (red, lanes 6–8), or therapeutic dNTP (green, lanes 9–11). Products were separated on denaturing gels. […] Letters on the right indicate the template base; P indicates unextended 18-mer primer. Graphs represent the percent of total primers extended. Images are representative of, and data are shown as mean ± s.d. from, three independent experiments. Source data are provided as a Source Data file.
An equal volume of loading buffer (94% formamide, 0.1× TBE, 0.1% bromophenol blue, 0.1% xylene cyanol) was added to the reaction eluent. The samples were heat denatured for 10 min at 100 °C and loaded onto a 14% denaturing acrylamide gel (7 M urea, 1× TBE) and electrophoresed for 90 min at constant 38 W. Samples were imaged using a Typhoon phosphorimager (GE Healthcare). Percent primer extension was calculated with ImageQuant TL 8.2 by measuring the intensity of each product band and dividing by the total radioactivity in the lane or total products, as indicated in the figure legends.
Telomerase reactions were conducted with 5 nM 32P-end labeled primer (a) Primer 1 (TTAGGG)3, (b) Primer 2 (GGTTAG)3, or (c and d) Primer 3 […]
(d) reactions contained 3 µg/µl RNase A. Products were separated on denaturing gels. Letters on the right indicate the template base; P indicates unextended 18-mer primer. Graphs represent the percent of total primers extended for the reactions in panels a – c from one experiment. Panel d is a representative image from three independent experiments. Source data are provided as a Source Data file. […]
Supplementary Fig 4. Time course reactions with telomerase or pol β. (a, b) Telomerase reactions were conducted with 5 nM 32P-end labeled primer (a) Primer 4 (GTTAGG)3 or (b) Primer 2 (GGTTAG)3.
Products were separated on denaturing gels. Letters on the right indicate the template base; P indicates […]
unextended 18-mer primer. […]

Take `Cc1cn(C2CC(N=[N+]=[N-])C(COP(=O)(O)OP(=O)(O)OP(=O)(O)O)O2)c(=O)[nH]c1=O` (stereo not drawn) [AZ-TP]: the “Slope (line fit of ln(100-%LB) vs # telomere repeats)” value is -0.35 and -0.41 in experiment [1] (8μM); -0.51 and -0.43 in experiment [1] (32μM); -1.08 and -0.93 in experiment [1] (500μM); -1.14 and -1.23 in experiment [1] (1000μM); -1.39 and -1.63 in experiment [1] (2000μM). For the same molecule, the “YIntercept (line fit of ln(100-%LB) vs # telomere repeats)” value in experiment [1] (8μM) is 3.32 and 3.48; in experiment [1] (32μM) it was 3.76 and 3.36; in experiment [1] (500μM), 4.06 and 3.77; in experiment [1] (1000μM) it was 4.20 and 4.38; in experiment [1] (2000μM) it was 4.11 and 4.80. Moreover, the “ln(100-%LB)” value is 3.55 and 3.46 in experiment [1] (8μM, telomere repeat 1); 2.86 and 2.72 in experiment [1] (8μM, telomere repeat 2); 2.16 and 1.97 in experiment [1] (8μM, telomere repeat 3); 1.81 and 1.63 in experiment [1] (8μM, telomere repeat 4); 1.46 and 1.29 in experiment [1] (8μM, telomere repeat 5); 1.02 and 0.87 in experiment [1] (8μM, telomere repeat 6). Further, the “ln(100-%LB)” value in experiment [1] (8μM, telomere repeat 7) is 0.66 and 0.48; in experiment [1] (8μM, telomere repeat 8), 0.32 and 0.21; in experiment [1] (32μM, telomere repeat 1), 3.48 and 3.40; in experiment [1] (32μM, telomere repeat 2), 2.72 and 2.60; in experiment [1] (32μM, telomere repeat 3), 1.91 and 1.78; in experiment [1] (32μM, telomere repeat 4) it was 1.53 and 1.42. Moreover, the “ln(100-%LB)” value was 1.15 and 1.06 in experiment [1] (32μM, telomere repeat 5); 0.66 in experiment [1] (32μM, telomere repeat 6); 0.23 and 0.18 in experiment [1] (32μM, telomere repeat 7); 3.07 and 3.05 in experiment [1] (500μM, telomere repeat 1); 1.89 and 1.90 in experiment [1] (500μM, telomere repeat 2); 0.66 and 0.65 in experiment [1] (500μM, telomere repeat 3). Also, the “ln(100-%LB)” value in experiment [1] (1000μM, telomere repeat 1) is 3.08 and 3.19; in experiment [1] (1000μM, telomere repeat 2), 1.90 and 1.97; in experiment [1] (1000μM, telomere repeat 3), 0.69 and 0.55; in experiment [1] (2000μM, telomere repeat 1) it was 2.72 and 3.17; in experiment [1] (2000μM, telomere repeat 2), 1.32 and 1.54.
With `Cc1cn([C@H]2C[C@H](N=[N+]=[N-])[C@@H](CO)O2)c(=O)[nH]c1=O` [AZT], the “% Primer Extension” value in experiment [2] (Primer 1, 5µM dNTP) came out at 6.28%; in experiment [2] (Primer 1, 50µM dNTP), 12.17%; in experiment [2] (Primer 1, 500µM dNTP), 12.98%; in experiment [2] (Primer 2, 5µM dNTP), 0%; in experiment [2] (Primer 2, 50µM dNTP), 0%; in experiment [2] (Primer 2, 500µM dNTP) it was 0%. The “% Primer Extension” value in experiment [2] (Primer 3, 5µM dNTP) amounted to 0%; in experiment [2] (Primer 3, 50µM dNTP) it was 3.43%; in experiment [2] (Primer 3, 500µM dNTP) it was 4.38%.
For the molecule `Nc1ccn([C@H]2C[C@H](O)[C@@H](COP(=O)(O)OP(=O)(O)OP(=O)(O)O)O2)c(=O)n1` [dCTP], the “Percent Primer Extension” value is 5.85% in experiment [2] (Primer 1 (TTAGGG)3, first template base rA3, Mean of three experiments); 5.75% and 3.98% and 7.81% in experiment [2] (Primer 1 (TTAGGG)3, first template base rA3, single experiments n1-n3, listed as dC); 0.00% in experiment [2] (Primer 2 (GGTTAG)3, first template base rC1, Mean of three experiments); 0.00% in experiment [2] (Primer 2 (GGTTAG)3, first template base rC1, single experiments n1-n3); 0.00% in experiment [2] (Primer 3 (AGGGTT)3, first template base rU5, Mean of three experiments); 0.00% in experiment [2] (Primer 3 (AGGGTT)3, first template base rU5, single experiments n1-n3). For the same molecule, the “% Primer Extension” value is 4.15% in experiment [2] (Primer 1, 5µM dNTP); 7.81% in experiment [2] (Primer 1, 50µM dNTP); 8.06% in experiment [2] (Primer 1, 500µM dNTP); 0.00% in experiment [2] (Primer 2, 5µM dNTP); 0.00% in experiment [2] (Primer 2, 50µM dNTP); 0.00% in experiment [2] (Primer 2, 500µM dNTP). Also, the “% Primer Extension” value in experiment [2] (Primer 3, 5µM dNTP) was found to be 0.00%; in experiment [2] (Primer 3, 50µM dNTP) it was 0.00%; in experiment [2] (Primer 3, 500µM dNTP), 0.00%.
